Experimental data published in patent publication US11332455B2, “α,β-unsaturated amide compound” (KYOWA KIRIN CO., LTD., priority 2015, dated 2022).

Legend:
Experiment in all cases: Cell growth inhibitory effect, cell counting kit 8, 6 days
Format in all cases: cell-based
[1] = system: HuH28, a human liver cancer cell line; conditions: 144 h, HuH28 cells, 6 days incubation
Description: (§1) Cell growth inhibitory effect on human mesothelioma, human liver cancer, human ovarian cancer, and […]
(§2) NCI-H226 cells, a human mesothelioma cell line (ATCC, CRL-5826), NCI-H322 cells, a human lung cancer cell line (the European Collection of Authenticated Cell Cultures, 95111734), OVTOKO cells, a human ovarian cancer cell line (JCRB cell bank, JCRB1048) and HuH28, a human liver cancer cell line (JCRB cell bank, JCRB0426) were each subcultured by keeping the cell density under 80% in a RPMI1640 culture medium with 10% fetal bovine serum (FBS). NCI-H226 cells, NCI-H322 cells and SSP-25 cells were each suspended in the RPM11640 culture medium mentioned above, and plated to a 96-well flat-bottom plate at 500 cells/well in each well, and incubated at 37° C. in an incubator with 5% CO2 for one day. After the incubation, the evaluation of cell growth inhibitory activity was started. OVTOKO cells were suspended in the RPMI1640 culture medium mentioned above, and plated to a 96-well flat-bottom plate at 250 cells/well in each well, and incubated it at 37° C. in an incubator with 5% CO2 for one day. After the incubation, the evaluation of the cell growth inhibitory activity was started. The next day, a test compound was serially diluted to 5 times of its final concentration in the RPM11640 culture medium mentioned above, and the diluted solution was added to each well. In this case, the final concentration of DMSO in each well was adjusted to 0.1%. After the test compound was added, cells were incubated at 37° C. in an incubator with 5% CO2 for 6 days. At the addition of the test compound and 6 days after the addition, the cell counting measurement was performed using a cell counting kit 8 (made by DOJINDO) according to a protocol equivalent to DOJINDO's recommendation. A reagent contained in the kit was added to each plate and color reaction was performed for 2 or 3 hours at 37° C. in an incubator with 5% CO2. After the reaction, an absorbance at wavelength of 450 nm was measured using a microplate reader. A growth inhibition rate was calculated according to the following formula, from which the concentration of a test compound at which cell growth was inhibited by 50% (GI50 value) was determined.

[2] = system: NCI-H226 cells, a human mesothelioma cell line; conditions: 144 h, 6 days incubation, group less than 100 nmol/L
Description: as §1, §2

[3] = system: NCI-H322 cells, a human lung cancer cell line; conditions: 144 h, 6 days incubation
Description: as §1, §2

| Compound | GI50 [1] [nM] | GI50 [2] [nM] | GI50 [3] [nM] |
| --- | --- | --- | --- |
| C=CC(=O)NC1CCOc2c1ccc(Oc1ccc(C(F)(F)F)nc1)c2Cl (stereo not drawn) [Compound 168, N-(8-Chloro-7-[{6-(trifluoromethyl)pyridin-3-yl}oxy]chroman-4-yl)acrylamide] | < 3000 | < 100 | < 1000 |
| C=CC(=O)Nc1cncc(Oc2ccnc(C(F)(F)F)c2)c1 [Compound 108, N-(5-[{2-(Trifluoromethyl)pyridin-4-yl}oxy]pyridin-3-yl)acrylamide] | < 3000 | < 100 | < 1000 |
| C=CC(=O)N[C@@H]1CC[C@H](Oc2ccc(C(F)(F)F)cc2)c2ncc(Cl)cc21 (relative stereo) [Compound 190, N-((5R*,8S*)-3-Chloro-8-(4-(trifluoromethyl)phenoxy)-5,6,7,8-tetrahydroquinolin-5-yl)acrylamide] | < 3000 | < 100 | < 1000 |
| C=CC(=O)Nc1cncc(Oc2cccc(C(F)(F)F)c2)c1 [Compound 95, N-[5-{3-(Trifluoromethyl)phenoxy}pyridin-3-yl]acrylamide] | < 3000 | < 100 | < 1000 |
| C=CC(=O)NCc1ccc(Oc2ccc(Cl)cc2)c2c1CCCO2 [Compound 176, N-[{8-(4-Chlorophenoxy)chroman-5-yl}methyl]acrylamide] | < 3000 | < 100 | < 1000 |
| C=CC(=O)NCc1ccc(Sc2ccc(C(F)(F)F)cc2)c2ncccc12 [Compound 202, N-{(8-[{4-(Trifluoromethyl)phenyl}thio]quinolin-5-yl)methyl}acrylamide] | < 3000 | < 100 | < 1000 |
| C=CC(=O)NCc1cnc(Oc2ccc(C(F)(F)F)cc2)c2ccccc12 [Compound 222, N-([1-{4-(Trifluoromethyl)phenoxy}isoquinolin-4-yl]methyl)acrylamide] | < 3000 | < 100 | < 1000 |
| C=CC(=O)NCc1ccc(Nc2ccc(C(F)(F)F)cc2)c2ncccc12 [Compound 203, N-{(8-[{4-(Trifluoromethyl)phenyl}amino]quinolin-5-yl)methyl}acrylamide] | < 3000 | < 100 | < 1000 |
| C=CC(=O)NCc1cnc(Oc2ccc(Cl)cc2)c2ncccc12 [Compound 227, N-[{8-(4-Chlorophenoxy)-1,7-naphthyridin-5-yl}methyl]acrylamide] | < 3000 | < 100 | < 1000 |
| C=CC(=O)N[C@@H]1c2ccc(Oc3ccc(C(F)(F)F)cc3)cc2OC[C@H]1F (relative stereo) [Compound 22, trans-N-[3-Fluoro-7-{4-(trifluoromethyl)phenoxy}chroman-4-yl]acrylamide] | < 3000 | < 100 | < 1000 |
| C=CC(=O)NC1CCOc2c1ccc(Oc1ccc(C(F)(F)F)nc1)c2Br (stereo not drawn) [Compound 169, N-(8-Bromo-7-[{6-(trifluoromethyl)pyridin-3-yl}oxy]chroman-4-yl)acrylamide] | < 3000 | < 100 | < 1000 |
| C=CC(=O)Nc1ccc(OCC2CCC(F)(F)CC2)c2ncccc12 [Compound 126, N-[8-{(4,4-Difluorocyclohexyl)methoxy}quinolin-5-yl]acrylamide] | < 3000 | < 100 | < 1000 |
| C=CC(=O)Nc1ccc(Oc2ccccc2)c2nc(C)ccc12 [Compound 112, N-(2-Methyl-8-phenoxyquinolin-5-yl)acrylamide] | < 3000 | < 100 | < 1000 |
| C=CC(=O)Nc1cncc(Oc2ccc(C(F)(F)F)cc2)c1 [Compound 96, N-[5-{4-(Trifluoromethyl)phenoxy}pyridin-3-yl]acrylamide] | < 3000 | < 100 | < 1000 |
| C=CC(=O)NCc1ccc(Cc2ccc(C(F)(F)F)cc2)c2ncccc12 [Compound 211, N-([8-{4-(Trifluoromethyl)benzyl}quinolin-5-yl]methyl)acrylamide] | < 3000 | < 100 | < 1000 |
